The term Emax denotes the maximal effect, on the per cent scale that the assay sets. The term EC50 denotes the concentration at which the effect is half-maximal.

SMILES strings stand for the structures.

Test [1] has as its system mice treated with 1-methyl-4-phenyl-1,2,3,6-tetrahydropyridine (MPTP). The test can be described thus: Functional activity in a model of mice treated with MPTP (striatal dopamine, TH mRNA in substantia nigra). The class given is in vivo. Particulars: for action of MPTP (decrease in dopamine level in the striatum and in TH expression level in the substantia nigra): C57BL6/J mice, compound orally twice a day for 11 days, MPTP 20 mg/kg ip once a day for 5 days, FIGS. 1 and 2. The protocol:
3. Study of the Functional Activity in a Mouse Model
A third series of […] tests was carried out with the compounds according to the invention, for the purpose of verifying that the molecules indeed have the expected neuroprotective effect.
The compounds of examples 10 and 118 were tested on a model of mice treated with 1-methyl-4-phenyl-1,2,3,6-tetrahydropyridine (MPTP) in order to confirm their potential activity. MPTP is a neurotoxin which causes the permanent symptoms of Parkinson's disease by destroying the dopaminergic neurons in the substantia nigra. The following protocol: was used.
Male C57BL6/J mice, 10-12 weeks old at the beginning of the studies, were divided up into groups of 12 animals. The compounds wee administered orally, twice a day, for 11 days in total. The administration began 3 days before the treatment with the MPTP toxin at 20 mg/kg. The MPTP was administered once a day by intraperitoneal injection, for 5 days. The admistration of the compounds was continued during the 5 days of MPTP treatment and then for a further 3 days after the MPTP treatment. One group of mice received, orally, the carrier alone (solution of methylcellulose at 1%, 0.1% poloxamer). The annuals were eythanized after rhe final gavage and the striatum and the substantia nigra were removed. The dopamine was extracted from the striatum and the amount of dopamine (DA), expressed in ng per g of striatum (mean±SEM), was measured by high-performance liquid chromatography (HPLC) with electrochemical detection. The messenger RNAs were isolated from the substantia nigra, and the expression level of the mRNAs encoding tyrosine hydroxylase (TH) was measured by quantitative PCR.
The results obtained were reported in appended FIGS. 1 and 2.

In a further test the target is T1, NURR-1/RXRγ (Homo sapiens, UniProt P48443).
T1 construct: expressed in transfected cells; host or cells: Cos-7 cells
The test can be described thus: Transactivation test, NURR-1-Gal4/RXRγ, luciferase reporter in Cos-7 cells. The format is cell-based. Conditions: for Emax: COS-7, induction level relative to reference XCT0135908 at 2×10^−5 M (=100%), read-out: hNurr1_RXRgFL Emax (%); for EC50: Cos-7 cells, NURR-1-Gal4/RXRγ, luciferase reporter, read-out: hNurr1_RXRgFL EC50. (In general: A reporter such as luciferase makes a cellular process visible.)

T1 sequence (P48443 whole entry): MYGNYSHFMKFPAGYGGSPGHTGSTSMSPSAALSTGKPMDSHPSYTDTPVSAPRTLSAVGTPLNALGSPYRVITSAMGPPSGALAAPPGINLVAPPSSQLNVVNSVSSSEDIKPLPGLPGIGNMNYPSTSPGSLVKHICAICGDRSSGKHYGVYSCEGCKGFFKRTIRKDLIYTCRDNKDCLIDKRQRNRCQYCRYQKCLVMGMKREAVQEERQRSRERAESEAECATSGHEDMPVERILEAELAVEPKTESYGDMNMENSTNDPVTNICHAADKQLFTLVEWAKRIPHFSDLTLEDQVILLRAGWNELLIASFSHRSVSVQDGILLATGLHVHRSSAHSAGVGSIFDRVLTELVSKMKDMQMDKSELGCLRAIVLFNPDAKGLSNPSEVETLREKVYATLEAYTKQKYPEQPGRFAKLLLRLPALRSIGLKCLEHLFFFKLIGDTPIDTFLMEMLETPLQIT
T1 sequence (P43354 whole entry partner): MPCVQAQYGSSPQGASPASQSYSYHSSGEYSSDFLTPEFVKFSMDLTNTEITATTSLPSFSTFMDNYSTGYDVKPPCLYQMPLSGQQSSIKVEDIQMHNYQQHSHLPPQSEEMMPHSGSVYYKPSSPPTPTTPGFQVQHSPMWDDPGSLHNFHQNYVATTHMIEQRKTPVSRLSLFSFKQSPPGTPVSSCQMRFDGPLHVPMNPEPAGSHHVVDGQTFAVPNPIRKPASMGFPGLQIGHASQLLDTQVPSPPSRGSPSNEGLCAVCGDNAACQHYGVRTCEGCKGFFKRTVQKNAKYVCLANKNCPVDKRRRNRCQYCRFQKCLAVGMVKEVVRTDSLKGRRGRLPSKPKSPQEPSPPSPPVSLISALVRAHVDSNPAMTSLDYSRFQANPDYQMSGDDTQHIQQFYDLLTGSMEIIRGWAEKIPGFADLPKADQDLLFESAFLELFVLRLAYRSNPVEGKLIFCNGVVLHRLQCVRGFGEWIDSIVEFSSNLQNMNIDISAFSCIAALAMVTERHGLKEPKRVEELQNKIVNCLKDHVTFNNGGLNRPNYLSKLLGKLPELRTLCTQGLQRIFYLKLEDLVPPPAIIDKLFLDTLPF
T1 sequence (P04386 1-147 partner limits assumed): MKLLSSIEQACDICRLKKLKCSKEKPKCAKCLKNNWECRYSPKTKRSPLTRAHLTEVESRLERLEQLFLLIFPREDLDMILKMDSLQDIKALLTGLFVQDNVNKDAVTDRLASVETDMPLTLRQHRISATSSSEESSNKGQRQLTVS

Take `CC1(C)CCC(C)(C)c2cc(-c3cccc(N4CC(C(=O)O)C4)c3)ccc21` [Example 10, 1-[5-(1,1,4,4-tetrametyltetralin-6-yl)phenyl]azetidine-3-carboxylic acid]: in test [1], the “action of MPTP (decrease in dopamine level in the striatum and in TH expression level in the substantia nigra)” value was “decrease the action of MPTP in a dose-dependent manner”. Besides, on NURR-1/RXRγ, the Emax is 85% and the EC50 came to 0.024 µM.

In the case of `CC(C)CC1CN(c2cccc(N3CC(C(=O)O)C3)c2)c2ccc(C(F)(F)F)cc2O1` (stereo not shown) [Example 118, 1-[3-[2-isobutyl-7-(trilfuoromethyl)-2,3-dihydro-1,4-benzoxazin-4-yl]phenyl]azetidine-3-carboxylic acid], the “action of MPTP (decrease in dopamine level in the striatum and in TH expression level in the substantia nigra)” value in test [1] is “decrease the action of MPTP in a dose-dependent manner”. Also, in test [1] (orally twice a day for 11 days, MPTP-treated mice), the “tyrosine hydroxylase (TH) expression level (mRNA, substantia nigra, quantitative PCR)” value is recorded as “capable of re-establishing the tyrosine hydroxylase expression level in the brain”. For the same compound, on NURR-1/RXRγ, the Emax stood at 80% and the EC50 worked out at 0.047 µM.

The values are drawn from patent US20170066717A1, “NEW PHENYLAZETIDINECARBOXYLATE OR -CARBOXAMIDE COMPOUNDS” (INVENTIVA, priority 2014, published 2017).
